This test deals with BDF1 mice, Adenocarcinoma 755 s.c., tumor weight T/C. Briefly: NCI In Vivo Anticancer Drug Screen. Data for tumor model Adenocarcinoma 755 (subcutaneous) in B6D2F1 (BDF1) mice. The note with it: endpoint: mean tumor weight, higher = larger tumour. The gist of the method: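 Compound activity was tested in mice carrying transplanted tumors. Survival or tumor size was measured, and each value is the treated-group measurement divided by that of the vehicle-treated control group (T/C).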

Setting [1] is: dose: 75.0 mg/kg/injection, schedule: Q01DX011 (ip), vehicle: methylcellulose (MC).
The mark [2] stands for this setting: dose: 150.0 mg/kg/injection, schedule: Q01DX011 (ip), vehicle: methylcellulose (MC).
[3] abbreviates: dose: 300.0 mg/kg/injection, schedule: Q01DX011 (ip), vehicle: methylcellulose (MC).
The mark [4] stands for this setting: dose: 4.0 mg/kg/injection, schedule: Q01DX011 (ip), vehicle: carboxymethylcellulose (CMC).
Setting [5] is: dose: 30.0 mg/kg/injection, schedule: Q01DX011 (ip), vehicle: carboxymethylcellulose (CMC).
The mark [6] stands for this setting: dose: 60.0 mg/kg/injection, schedule: Q01DX011 (ip), vehicle: carboxymethylcellulose (CMC).
Where [7] appears, read: dose: 15.0 mg/kg/injection, schedule: Q01DX011 (ip), vehicle: carboxymethylcellulose (CMC).
Setting [8] is: dose: 50.0 mg/kg/injection, schedule: Q01DX011 (ip), vehicle: carboxymethylcellulose (CMC).

Data on 16 molecules can be found in PubChem BioAssay AID180 (DTP/NCI, 2004).

Several values for one entry are separate records, joined by “and”; a condition that tells them apart may be missing. Equal values may be shown once.

Consider `Nc1ncnc2c1ncn2C1CCCO1` (centres undefined), for which the T/C (in general, the result in the treated group divided by that in the control group, in per cent) is 111 % of control (dose: 18.7 mg/kg/injection, schedule: Q01DX011 (ip), vehicle: saline); 120 % of control (dose: 37.5 mg/kg/injection, schedule: Q01DX011 (ip), vehicle: saline); 119 % of control (dose: 75.0 mg/kg/injection, schedule: Q01DX011 (ip), vehicle: saline); 52 % of control (dose: 150.0 mg/kg/injection, schedule: Q01DX011 (ip), vehicle: saline); 23 % of control (dose: 300.0 mg/kg/injection, schedule: Q01DX011 (ip), vehicle: saline).

With `O=C(O)C(O)C(F)(F)F` (centres undefined), the T/C was 89 % of control (dose: 31.0 mg/kg/injection, schedule: Q01DX011 (ip), vehicle: other); 82 % of control (dose: 62.5 mg/kg/injection, schedule: Q01DX011 (ip), vehicle: other); 111 % of control (dose: 125.0 mg/kg/injection, schedule: Q01DX011 (ip), vehicle: other); 46 % of control (dose: 250.0 mg/kg/injection, schedule: Q01DX011 (ip), vehicle: other).

With `Nc1ccn(C2OC(CO)C(O)C2O)c(=O)n1` (centres undefined), the T/C is 36 % of control (dose: 15.0 mg/kg/injection, schedule: Q01DX011 (ip), vehicle: saline); 14 % of control (dose: 27.0 mg/kg/injection, schedule: Q01DX011 (ip), vehicle: saline); 36 % of control (dose: 30.0 mg/kg/injection, schedule: Q01DX011 (ip), vehicle: saline); 7 % of control (dose: 40.0 mg/kg/injection, schedule: Q01DX011 (ip), vehicle: saline); 15 % of control (dose: 60.0 mg/kg/injection, schedule: Q## X024 (ip), vehicle: saline); 8 % of control (dose: 120.0 mg/kg/injection, schedule: Q## X024 (ip), vehicle: saline).

`CC(C)Cn1cnc2c(SCCc3ccccc3)nc(N)nc21`: the T/C was 52 % of control under setting [1], 34 % of control under setting [2] and 3 % of control under setting [3].

As to `Cn1c(=O)c2c(nc(N/N=C/C(Cl)Cl)n2C)n(C)c1=O`, the T/C is, setting by setting: (dose: 2.8 mg/kg/injection, schedule: Q01DX011 (ip), vehicle: methylcellulose (MC)) 79 % of control; (dose: 8.3 mg/kg/injection, schedule: Q01DX011 (ip), vehicle: methylcellulose (MC)) 71 % of control.

Take `O=C(NCCCl)N1CCN(C(=O)NCCCl)CC1`: the T/C reads like this: (dose: 50.0 mg/kg/injection, schedule: Q01DX011 (ip), vehicle: methylcellulose (MC)) 55 % of control; (dose: 100.0 mg/kg/injection, schedule: Q01DX011 (ip), vehicle: methylcellulose (MC)) 67 % of control; (dose: 200.0 mg/kg/injection, schedule: Q01DX011 (ip), vehicle: methylcellulose (MC)) 39 % of control; (dose: 400.0 mg/kg/injection, schedule: Q01DX011 (ip), vehicle: methylcellulose (MC)) 24 % of control.

As for `Nc1ncnc2c1cnn2CCCl`, the T/C was 79 % of control (dose: 1.5 mg/kg/injection, schedule: Q01DX011 (ip), vehicle: methylcellulose (MC)); 104 % of control (dose: 1.5 mg/kg/injection, schedule: Q01DX011 (ip), vehicle: saline); 31 % of control (dose: 3.1 mg/kg/injection, schedule: Q01DX011 (ip), vehicle: methylcellulose (MC)); 90 % of control (dose: 3.1 mg/kg/injection, schedule: Q01DX011 (ip), vehicle: saline); 50 % of control and 65 % of control under setting [4]; 26 % of control and 33 % of control (dose: 6.2 mg/kg/injection, schedule: Q01DX011 (ip), vehicle: methylcellulose (MC)). The T/C (dose: 6.2 mg/kg/injection, schedule: Q01DX011 (ip), vehicle: saline) is 73 % of control; the T/C (dose: 12.5 mg/kg/injection, schedule: Q01DX011 (ip), vehicle: methylcellulose (MC)) is 9 % of control; the T/C (dose: 12.5 mg/kg/injection, schedule: Q01DX011 (ip), vehicle: saline) is 25 % of control; the T/C (dose: 16.0 mg/kg/injection, schedule: Q01DX011 (ip), vehicle: carboxymethylcellulose (CMC)) is 35 % of control.

As to `C[C@@H]1CC2=CC(=O)C=C[C@]2(C)[C@H]2CC[C@@]3(C)[C@@H](CC[C@]3(C)O)[C@H]12`, the T/C is, setting by setting: (dose: 400.0 mg/kg/injection, schedule: Q01DX011 (sc), vehicle: steriod suspending solution) 16 % of control; (dose: 800.0 mg/kg/injection, schedule: Q01DX011 (sc), vehicle: steriod suspending solution) 33 % of control.

As for `CC(=O)OCC1OC(n2cnc3c(Cl)nc(N)nc32)C(OC(C)=O)C1OC(C)=O` (centres undefined), the T/C under setting [5] is 114 % of control; the T/C under setting [6] was 118 % of control; the T/C (dose: 120.0 mg/kg/injection, schedule: Q01DX011 (ip), vehicle: carboxymethylcellulose (CMC)) was 78 % of control; the T/C (dose: 240.0 mg/kg/injection, schedule: Q01DX011 (ip), vehicle: carboxymethylcellulose (CMC)) is 72 % of control.

Turning to `CC1CCC(n2cnc3c(Cl)ncnc32)O1` (centres undefined), the T/C by setting is: (dose: 3.7 mg/kg/injection, schedule: Q01DX011 (ip), vehicle: carboxymethylcellulose (CMC)) 58 % of control; (dose: 7.5 mg/kg/injection, schedule: Q01DX011 (ip), vehicle: carboxymethylcellulose (CMC)) 35 % of control; under setting [7], 63 % of control; under setting [5], 15 % of control and 23 % of control; under setting [6], 5 % of control.

`Cc1cc(Nc2ccccc2Br)nc(N)n1`: the T/C runs as follows: (dose: 15.0 mg/kg/injection, schedule: Q01DX011 (ip), vehicle: methylcellulose (MC)) 65 % of control; (dose: 31.0 mg/kg/injection, schedule: Q01DX011 (ip), vehicle: methylcellulose (MC)) 69 % of control; (dose: 62.0 mg/kg/injection, schedule: Q01DX011 (ip), vehicle: methylcellulose (MC)) 112 % of control; (dose: 125.0 mg/kg/injection, schedule: Q01DX011 (ip), vehicle: methylcellulose (MC)) 78 % of control; (dose: 250.0 mg/kg/injection, schedule: Q01DX011 (ip), vehicle: methylcellulose (MC)) 76 % of control.

As for `CC(C)CCCCCCCCCCCCC(=O)NCC(=O)NC1C(O)C(O)C(Nc2ncnc3nc[nH]c23)OC1C(O)CO` (centres undefined), the T/C by setting is: (dose: 0.11 mg/kg/injection, schedule: Q## X000 (ip), vehicle: carboxymethylcellulose (CMC)) 62 % of control; (dose: 0.22 mg/kg/injection, schedule: Q01DX011 (ip), vehicle: carboxymethylcellulose (CMC)) 65 % of control; (dose: 0.22 mg/kg/injection, schedule: Q## X000 (ip), vehicle: carboxymethylcellulose (CMC)) 41 % of control; (dose: 0.45 mg/kg/injection, schedule: Q01DX011 (ip), vehicle: carboxymethylcellulose (CMC)) 29 % of control; (dose: 0.45 mg/kg/injection, schedule: Q## X000 (ip), vehicle: carboxymethylcellulose (CMC)) 12 % of control; (dose: 0.9 mg/kg/injection, schedule: Q01DX011 (ip), vehicle: carboxymethylcellulose (CMC)) 5 % of control.

Regarding `CN(C)[C@@H]1C(=O)C(C(=O)NCNc2nc(=S)c3[nH]cnc3[nH]2)=C(O)[C@@]2(O)C(=O)C3=C(O)c4c(O)cccc4[C@@](C)(O)[C@H]3C[C@@H]12`, the T/C runs as follows: under setting [4], 52 % of control; (dose: 8.0 mg/kg/injection, schedule: Q01DX011 (ip), vehicle: carboxymethylcellulose (CMC)) 26 % of control; under setting [7], 2 % of control; under setting [5], 1 % of control; under setting [8], 1 % of control.

As for `CCCCNC(=O)c1n[se]nc1N`, the T/C by setting is: (dose: 2.0 mg/kg/injection, schedule: Q01DX011 (ip), vehicle: carboxymethylcellulose (CMC)) 76 % of control; under setting [4], 87 % of control.

Consider `C=CC(=O)NCNC(=O)CCBr`, for which the T/C runs as follows: (dose: 12.5 mg/kg/injection, schedule: Q01DX011 (ip), vehicle: carboxymethylcellulose (CMC)) 62 % of control; (dose: 25.0 mg/kg/injection, schedule: Q01DX011 (ip), vehicle: carboxymethylcellulose (CMC)) 34 % of control; under setting [8], 1 % of control.

On to `CSc1nc(N)nc2c1ncn2Cc1ccccc1`, for which the T/C under setting [1] was 74 % of control, the T/C under setting [2] was 53 % of control and the T/C under setting [3] is 64 % of control.
